Laboratory results taken from publication PMC4138103 (PLoS ONE, 2014).

Key:
[1] = rats; cited from earlier work
Sprague-Dawley rats [2] = test: Histopathology; format: in vivo, Rattus norvegicus; details: for Emax: Rattus norvegicus; for Large thyroid follicles (%), CED / Large thyroid follicles (%), CED-L: total dose based; for Adrenal zona fasciculata hypertrophy, CED: semi-quantitative staging; for Pituitary frontal lobe vacuoles or extracellular deposits, incidence: top dose (1700 mg/kg bw)
Description: After fixation, the samples were dehydrated, paraffinized and embedded according to standard sampling and trimming procedures. Sections of 4 µm were stained with hematoxylin and eosin in an automated way. Microscopic observations were done by initial unblinded comparison of control and top dose samples. […] Slide reading for such affected endpoints was refined by blind and/or semi-quantitative scoring.
For immunohistochemistry of TSH and ACTH in the pituitary routine sections were deparaffinized in a graded series of xylol/ethanol. Endogenous peroxidase activity was blocked in a 1/1 methanol/distilled water solution with 1/100 0.3% H2O2 added. […] Subsequent 60 min incubation with purified rabbit polyclonal IgG against rat TSH (Biogenesis), 1/1600 dilution, or against ACTH (Phoenix Pharmaceuticals), 1/1000 dilution, was followed by incubation with a biotinylated anti-rabbit second antibody in the case of TSH (1/200, 30 min; Vector) and avidin-biotin complex (Vector) according to instructions of the manufacturer; both antisera were diluted in the 1% blocking reagent solution, or with a peroxidase conjugated anti-rabbit second antibody (DAKO) in the case of ACTH. Immunostaining was completed with incubation with a standard diaminobenzidine (Sigma) solution for 5 min and counterstaining with hematoxylin (Mayer procedure). Immunostaining was evaluated by comparing the quantity and staining intensity of positive cells between control and high dose samples.
(§1) Data were also analyzed using the BMD method, which is based on dose-response modeling of the full data set using a nested family of exponential and Hill models. The analyses were done on data of males and females combined, using sex as a covariate. […] In that case, different Critical Effect Doses (CEDs) and CEDs at the lowest bound of the confidence interval (CED-L) were generated for each sex. If no difference between sexes is detected, a CED and CED-Ls for the combined data is generated. However, this was also done if the curve fits are close, and separate analyses for males and females were then performed manually. CEDs and CED-Ls were calculated at the predefined Critical Effect Size (CES) of 5% (EFSA standard) or 10%.

Sprague-Dawley rats [3] = test: Bone biomechanics, three-point bending test of tibial shaft; format: in vivo, Rattus norvegicus; parameters: key to Dose response: Biomechanics, diaphysis, Yield Force: D: significant dose response (for results, see Table 2); T: significant trend; details: for Emax: Rattus norvegicus; for F yield, CED / F yield, CED-L: total dose based
Procedure: For biomechanical testing hind limbs were defrosted and tibial shafts tested with a three-point bending test using a custom made testing apparatus, [34]. Each bone was placed on a support with a span length of 13 mm and bending load was applied with a constant speed of 0.155 mm/sec until failure. The breaking force, bending stiffness and yield force were defined from load-displacement data. Stiffness was calculated as the slope of the linear part of load-displacement curve. Yield force was defined as a corresponding force where the fit for stiffness separated from the measured load-displacement curve. The breaking force was defined as bending load at maximum. Corresponding to these forces also both failure and yield deformations were evaluated.
as §1

[4] = F, CES 5%, model E4, adipose tissue concentration based
[5] = F, CES 10%, model E4, adipose tissue concentration based
[6] = females, adipose tissue concentration based
[7] = F, CES 5%, model E2, adipose tissue concentration based
[8] = F, CES 10%, model E2, adipose tissue concentration based
[9] = tibia, females, total dose 3 mg/kg bw
[10] = tibia, females, total dose 10 mg/kg bw
[11] = tibia, females, total dose 30 mg/kg bw
[12] = tibia, females, total dose 100 mg/kg bw
[13] = tibia, females, total dose 300 mg/kg bw
[14] = tibia, females, total dose 1000 mg/kg bw
[15] = tibia, females, total dose 1700 mg/kg bw
[16] = tibia, males, total dose 3 mg/kg bw
[17] = tibia, males, total dose 10 mg/kg bw
[18] = tibia, males, total dose 30 mg/kg bw
[19] = tibia, males, total dose 100 mg/kg bw
[20] = tibia, males, total dose 300 mg/kg bw
[21] = tibia, males, total dose 1000 mg/kg bw
[22] = tibia, males, total dose 1700 mg/kg bw

Clc1cc(Cl)c(-c2cc(Cl)c(Cl)c(Cl)c2Cl)cc1Cl [PCB 180, 2,2′,3′,4,4′,5,5′-heptachlorobiphenyl]
Elimination half-life [1]: 90 days | CED, Large thyroid follicles (%) (Sprague-Dawley rats [2]; [4]): 105 µg/g lipid | CED-L, Large thyroid follicles (%) (Sprague-Dawley rats [2]; [4]): 52.7 µg/g lipid | CED, Large thyroid follicles (%) (Sprague-Dawley rats [2]; [5]): 218 µg/g lipid | CED-L, Large thyroid follicles (%) (Sprague-Dawley rats [2]; [5]): 110 µg/g lipid | Emax (Sprague-Dawley rats [2]; F, model E4, controls vs high dose according to the fitted model, read-out: Maximum response, Large thyroid follicles (%)): -70.9% | Emax (Sprague-Dawley rats [2]; females, controls vs high dose, fitted model, read-out: Large thyroid follicles (%), Maximum response): -71% | Hyperemia of inner zones of adrenal cortex, CEDL (Sprague-Dawley rats [2]; females): 2526 mg/kg bw | Activation of adrenal zona fasciculata, difference in CED values between genders (Sprague-Dawley rats [2]; females more sensitive, semi-quantitative evaluation): 297 fold | Large thyroid follicles (%), CED (Sprague-Dawley rats [2]; females, CES 5%): 22.6 mg/kg bw | Large thyroid follicles (%), CED-L (Sprague-Dawley rats [2]; females, CES 5%): 11.6 mg/kg bw | Large thyroid follicles (%), CED (Sprague-Dawley rats [2]; females, CES 10%): 131 mg/kg bw | Large thyroid follicles (%), CED-L (Sprague-Dawley rats [2]; females, CES 10%): 81.0 mg/kg bw | Area of large thyroid follicles, CED (Sprague-Dawley rats [2]; [6]): 105 µg/g lipid | Thyroid follicle depletion in females, CED (Fig. 7C) (Sprague-Dawley rats [2]; females, legend says CES 5%): 131 | Thyroid follicle depletion in females, CED-L05 (Fig. 7C) (Sprague-Dawley rats [2]; females, legend says CES 5%): 80.5 | Thyroid follicle depletion in females, CED-L95 (Fig. 7C) (Sprague-Dawley rats [2]; females, legend says CES 5%): 213.3 | Adrenal zona fasciculata hypertrophy, CED (Sprague-Dawley rats [2]; females): 2.0 mg/kg bw | Pituitary frontal lobe vacuoles or extracellular deposits, incidence (Sprague-Dawley rats [2]; females): 2/5 | Adrenal zona fasciculata hypertrophy, CED (Sprague-Dawley rats [2]; males): 594 mg/kg bw | Pituitary frontal lobe vacuoles or extracellular deposits, incidence (Sprague-Dawley rats [2]; males): 4/5 | CED, F yield (Sprague-Dawley rats [3]; [7]): 2860 µg/g lipid | CED-L, F yield (Sprague-Dawley rats [3]; [7]): 1647 µg/g lipid | CED, F yield (Sprague-Dawley rats [3]; [8]): 5880 µg/g lipid | CED-L, F yield (Sprague-Dawley rats [3]; [8]): 3384 µg/g lipid | Emax (Sprague-Dawley rats [3]; F, model E2, controls vs high dose according to the fitted model, read-out: Maximum response, F yield): -18.3% | Emax (Sprague-Dawley rats [3]; females, controls vs high dose, fitted model, read-out: F yield, Maximum response): -16.7% | F yield, CED (Sprague-Dawley rats [3]; females, CES 5%): 476 mg/kg bw | F yield, CED-L (Sprague-Dawley rats [3]; females, CES 5%): 266 mg/kg bw | F yield, CED (Sprague-Dawley rats [3]; females, CES 10%): 978 mg/kg bw | F yield, CED-L (Sprague-Dawley rats [3]; females, CES 10%): 547 mg/kg bw | Yield force of tibial shaft, CED (Sprague-Dawley rats [3]; [6]): 2860 µg/g lipid | Biomechanics, diaphysis: Ultimate Deformation (Sprague-Dawley rats [3]; [9]): 0.601 mm | Biomechanics, diaphysis: Ultimate Force (Sprague-Dawley rats [3]; [9]): 108 N | Biomechanics, diaphysis: Yield Deformation (Sprague-Dawley rats [3]; [9]): 0.291 mm | Biomechanics, diaphysis: Yield Force (Sprague-Dawley rats [3]; [9]): 72.2 N | Biomechanics, diaphysis: Ultimate Deformation (Sprague-Dawley rats [3]; [10]): 0.634 mm | Biomechanics, diaphysis: Ultimate Force (Sprague-Dawley rats [3]; [10]): 106 N | Biomechanics, diaphysis: Yield Deformation (Sprague-Dawley rats [3]; [10]): 0.295 mm | Biomechanics, diaphysis: Yield Force (Sprague-Dawley rats [3]; [10]): 65.9 N | Biomechanics, diaphysis: Ultimate Deformation (Sprague-Dawley rats [3]; [11]): 0.763 mm | Biomechanics, diaphysis: Ultimate Force (Sprague-Dawley rats [3]; [11]): 112 N | Biomechanics, diaphysis: Yield Deformation (Sprague-Dawley rats [3]; [11]): 0.378 mm | Biomechanics, diaphysis: Yield Force (Sprague-Dawley rats [3]; [11]): 81.2 N | Biomechanics, diaphysis: Ultimate Deformation (Sprague-Dawley rats [3]; [12]): 0.622 mm | Biomechanics, diaphysis: Ultimate Force (Sprague-Dawley rats [3]; [12]): 100 N | Biomechanics, diaphysis: Yield Deformation (Sprague-Dawley rats [3]; [12]): 0.360 mm | Biomechanics, diaphysis: Yield Force (Sprague-Dawley rats [3]; [12]): 79.7 N | Biomechanics, diaphysis: Ultimate Deformation (Sprague-Dawley rats [3]; [13]): 0.640 mm | Biomechanics, diaphysis: Ultimate Force (Sprague-Dawley rats [3]; [13]): 104 N | Biomechanics, diaphysis: Yield Deformation (Sprague-Dawley rats [3]; [13]): 0.341 mm | Biomechanics, diaphysis: Yield Force (Sprague-Dawley rats [3]; [13]): 76.7 N | Biomechanics, diaphysis: Ultimate Deformation (Sprague-Dawley rats [3]; [14]): 0.645 mm | Biomechanics, diaphysis: Ultimate Force (Sprague-Dawley rats [3]; [14]): 105 N | Biomechanics, diaphysis: Yield Deformation (Sprague-Dawley rats [3]; [14]): 0.316 mm | Biomechanics, diaphysis: Yield Force (Sprague-Dawley rats [3]; [14]): 71.4 N | Biomechanics, diaphysis: Ultimate Deformation (Sprague-Dawley rats [3]; [15]): 0.691 mm | Biomechanics, diaphysis: Ultimate Force (Sprague-Dawley rats [3]; [15]): 109 N | Biomechanics, diaphysis: Yield Deformation (Sprague-Dawley rats [3]; [15]): 0.276 mm | Biomechanics, diaphysis: Yield Force (Sprague-Dawley rats [3]; [15]): 60.4 N | Dose response: Biomechanics, diaphysis, Yield Force (Sprague-Dawley rats [3]; tibia, females, total doses 0-1700 mg/kg bw): D | Biomechanics, diaphysis: Ultimate Deformation (Sprague-Dawley rats [3]; [16]): 0.888 mm | Biomechanics, diaphysis: Ultimate Force (Sprague-Dawley rats [3]; [16]): 123 N | Biomechanics, diaphysis: Yield Deformation (Sprague-Dawley rats [3]; [16]): 0.423 mm | Biomechanics, diaphysis: Yield Force (Sprague-Dawley rats [3]; [16]): 84.8 N | Biomechanics, diaphysis: Ultimate Deformation (Sprague-Dawley rats [3]; [17]): 0.727 mm | Biomechanics, diaphysis: Ultimate Force (Sprague-Dawley rats [3]; [17]): 131 N | Biomechanics, diaphysis: Yield Deformation (Sprague-Dawley rats [3]; [17]): 0.333 mm | Biomechanics, diaphysis: Yield Force (Sprague-Dawley rats [3]; [17]): 71.9 N | Biomechanics, diaphysis: Ultimate Deformation (Sprague-Dawley rats [3]; [18]): 0.704 mm | Biomechanics, diaphysis: Ultimate Force (Sprague-Dawley rats [3]; [18]): 122 N | Biomechanics, diaphysis: Yield Deformation (Sprague-Dawley rats [3]; [18]): 0.346 mm | Biomechanics, diaphysis: Yield Force (Sprague-Dawley rats [3]; [18]): 78.4 N | Biomechanics, diaphysis: Ultimate Deformation (Sprague-Dawley rats [3]; [19]): 0.786 mm | Biomechanics, diaphysis: Ultimate Force (Sprague-Dawley rats [3]; [19]): 130 N | Biomechanics, diaphysis: Yield Deformation (Sprague-Dawley rats [3]; [19]): 0.395 mm | Biomechanics, diaphysis: Yield Force (Sprague-Dawley rats [3]; [19]): 87.0 N | Biomechanics, diaphysis: Ultimate Deformation (Sprague-Dawley rats [3]; [20]): 0.758 mm | Biomechanics, diaphysis: Ultimate Force (Sprague-Dawley rats [3]; [20]): 132 N | Biomechanics, diaphysis: Yield Deformation (Sprague-Dawley rats [3]; [20]): 0.295 mm | Biomechanics, diaphysis: Yield Force (Sprague-Dawley rats [3]; [20]): 69.0 N | Biomechanics, diaphysis: Ultimate Deformation (Sprague-Dawley rats [3]; [21]): 0.772 mm | Biomechanics, diaphysis: Ultimate Force (Sprague-Dawley rats [3]; [21]): 120 N | Biomechanics, diaphysis: Yield Deformation (Sprague-Dawley rats [3]; [21]): 0.446 mm | Biomechanics, diaphysis: Yield Force (Sprague-Dawley rats [3]; [21]): 93.0 N | Biomechanics, diaphysis: Ultimate Deformation (Sprague-Dawley rats [3]; [22]): 0.769 mm | Biomechanics, diaphysis: Ultimate Force (Sprague-Dawley rats [3]; [22]): 118 N | Biomechanics, diaphysis: Yield Deformation (Sprague-Dawley rats [3]; [22]): 0.346 mm | Biomechanics, diaphysis: Yield Force (Sprague-Dawley rats [3]; [22]): 81.2 N
